Data reported in article PMC7486406, “A flavin-dependent monooxygenase catalyzes the initial step in cyanogenic glycoside synthesis in ferns” (Communications Biology, 2020).

Assays:
PaqFOS1 [1] = molecular target: T1, PaqFOS1 (Pteridium aquilinum, UniProt A0A7H1KPE2); experiment: absorbance spectrometry; SEC monitored at […] nm; assay type: binding; conditions: cofactor of the isolated protein; 50 mM HEPES pH 7.5, 150 mM NaCl, 0.5 mM TCEP
T1 construct: gene FOS1; full-length, N-terminal 6xHis, codon-optimised, pET-30a(+), E. coli BL21(DE3)-R3; methods print contig as Paq18305

PaqFOS1 [2] = molecular target: T1, PaqFOS1; experiment: absorbance spectrometry; SEC monitored at […] nm; assay type: binding; conditions: cofactor of the isolated protein; 50 mM HEPES pH 7.5, 150 mM NaCl, 0.5 mM TCEP; remark: listed apart in the source
[3] = molecular target: the molecule itself; experiment: SEC; HiLoad 16/60 Superdex 200 calibrated with a high molecular weight kit (43 to 669 kDa); 50 mM HEPES pH 7.5, 150 mM NaCl, 0.5 mM TCEP; after His-Trap purification; self-association (dimer)

For `Cc1cc2nc3c(=O)[nH]c(=O)nc-3n(C[C@H](O)[C@H](O)[C@H](O)COP(=O)(O)OP(=O)(O)OC[C@H]3O[C@@H](n4cnc5c(N)ncnc54)[C@H](O)[C@@H]3O)c2cc1C` [FAD], the “absorbance spectrometry; SEC monitored at 450 nm” value (PaqFOS1 [1]) was “The isolated PaqFOS1 protein binds the cofactors FAD and NADPH as demonstrated by absorbance spectrometry”.

In the case of `NC(=O)C1=CN([C@@H]2O[C@H](COP(=O)(O)OP(=O)(O)OC[C@H]3O[C@@H](n4cnc5c(N)ncnc54)[C@H](OP(=O)(O)O)[C@@H]3O)[C@@H](O)[C@H]2O)C=CC1` [NADPH], the “absorbance spectrometry; SEC monitored at 254 nm” value (PaqFOS1 [2]) is reported as “The isolated PaqFOS1 protein binds the cofactors FAD and NADPH as demonstrated by absorbance spectrometry”.

B1: Arabidopsis thaliana flavin-dependent monooxygenase 1 (AtFMO1), recombinant with upstream 6xHis tag (enzyme, A. thaliana, UniProt Q9LMA1 1-530, looked up)
chain: MASNYDKLTSSRVAIIGAGVSGLAAAKNLVHHNPTVFEASDSVGGVWRSCTYETTKLQSARVDYEFSDFPWPNNRDDTTFPPYLEILDYLESYAKHFDLLKFMKFGSKVIEVRFIGDGETPQMVDLGAYGNLLPGKPVWEVAVQIGDSGDIQWHAFEFVVVCTGKYGDVPRIPAFPAKKGPEMFQGKVMHSMDYCKLEKEEASTLLSGKKVAVIGFKKSAIDLALESALANQGEGGKACTMVVRTTHWGIPHYWVWGLPFFLFYSSRASQFLHDRPNQSFLRTLFCLLFSLLRAVVSKFIESYVLWKLPLEKYGLKPNHSFEEDYASCQMAIIPENFFEEADKGMIRFKKSSKWWFYEEGIVFEDGTTLEADVVILATGYDGKKKLKAIVPEPFRTWLEFPSGVMPLYRGTIHPLIPNMGFVGYVQSSSNLHTSELRSMWLSRLVDEKFRLPSKEKMLDQFLKEMEVTRNSSRFYKRHCISTFSIQHADDMCNDMGLNPWRKSNFLLEAFSPYGSQDYRLGQEEKEDMTA
notes: AtFMO1 from Arabidopsis thaliana (Q9LMA1), codon optimized for E. coli; The methods describe the isolation for PaqFOS1 only; AtFMO1 is said to have been expressed and isolated in parallel; source: E. coli BL21(DE3)-R3, pET-30a(+), expressed and isolated in parallel to PaqFOS1
B1 was tested, and the “stoichiometry N” value [3] was 2.

B2: Pteridium aquilinum fern oxime synthase 1 (PaqFOS1), recombinant with N-terminal 6xHis tag (enzyme, UniProt A0A7H1KPE2 1-543, looked up)
chain: MAPNVPSAMYTTCLPERTALQEKLSGDRAALAARVCIVGAGVTGLCACKHLLQHGVESVVLEMQTGVGGVWRNTFSSTKLQTPRDAFQYSDFLWPPGTPRLPSHAQVLDYLESYARKFQVLERIVFNCRVLEVRRLDLEGPPPVSAFQKLPANAKWAVRVQQGSADLTQLDAEWLYFEYVLVCVGHYGDIAKTPKFAVPSKGPQAFHGKVLHSLDYSKLDEAATKKLLTGKRVIVVGSRKSALDAVMEASNSNRGPDGKPVTLLFRTPHWVIAHHFFYGIPMSYMTSRFSQLLVPQPGGGSTLHDIISAALSPLRWALSKALEFYLLSTLPLAEHGFVPNQNIFEEFKSCKLTLLPEHFFDYVKEGHIKLQKTSTWCFSSNGVTLPNGDELEADVIILCTGYEGERKIKSLLGTSFEDILQENDSSIPLYRGVLPPRIPNMAILGFQESYSNLFSAEMSARWVAYWIAGKIALPNKEIMEMEAYKWLRNTKPFMTINDKTCVNTTALQLADQMCRDMGWNSRRKKSLLQEIFAPYGNMDYKDE
notes: identical to the 543 aa ORF of Pa22758 except for a single amino acid substitution; calculated mass 62.5 kDa; codon optimized for E. coli; No removal of the His tag is described; also called Paq18302; Paq18302 FMO
B2 was tested, and the “stoichiometry N” value [3] was 2.
